Consider six compounds from PubChem BioAssay AID248 (DTP/NCI, 2004).

The assay deals with L1210 leukemia ip in BDF1 mice, survival T/C. Kind of assay: NCI In Vivo Anticancer Drug Screen. Data for tumor model L1210 Leukemia (intraperitoneal) in B6D2F1 (BDF1) mice. The note with it: endpoint: mean survival time, higher = longer survival. An outline of the steps:
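Survival endpoint. Drug-treated group vs vehicle group, expressed as T divided by C. Tumor passaged by transplantation.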

SMILES strings stand for the structures. “And” between values parts separate entries of the source, which are not always exact repeats. Equal values may be shown once. Inconclusive results and toxic doses are left out.

For `CC1CN1P(=S)(N1CC1C)N1CC1C` (configuration not stated), the T/C (dose: 2.5 mg/kg/injection, schedule: Q01DX Z (ip), vehicle: saline) was 92 % of control; the T/C (dose: 3.75 mg/kg/injection, schedule: Q01DX015 (ip), vehicle: saline) is 104 % of control; the T/C (dose: 5.0 mg/kg/injection, schedule: Q01DX Z (ip), vehicle: saline) was 95 % of control; the T/C (dose: 6.0 mg/kg/injection, schedule: Q01DX001 (ip), vehicle: saline) was 100 % of control; the T/C (dose: 7.5 mg/kg/injection, schedule: Q01DX015 (ip), vehicle: saline) is 110 % of control; the T/C (dose: 10.0 mg/kg/injection, schedule: Q01DX Z (ip), vehicle: saline) is 98 % of control. Moreover, the T/C (dose: 12.0 mg/kg/injection, schedule: Q01DX001 (ip), vehicle: saline) is 113 % of control; the T/C (dose: 12.0 mg/kg/injection, schedule: Q01DX015 (ip), vehicle: saline) is 107 % of control; the T/C (dose: 20.0 mg/kg/injection, schedule: Q01DX Z (ip), vehicle: saline) is 101 % of control; the T/C (dose: 24.0 mg/kg/injection, schedule: Q01DX001 (ip), vehicle: saline) is 104 % of control; the T/C (dose: 48.0 mg/kg/injection, schedule: Q01DX001 (ip), vehicle: saline) is 108 % of control; the T/C (dose: 48.0 mg/kg/injection, schedule: Q01DX015 (ip), vehicle: saline) was 164 % of control. The T/C by setting is: (dose: 50.0 mg/kg/injection, schedule: Q01DX001 (ip), vehicle: saline) 108 % of control; (dose: 60.0 mg/kg/injection, schedule: Q01DX015 (ip), vehicle: saline) 102 % of control; (dose: 72.0 mg/kg/injection, schedule: Q01DX Z (ip), vehicle: saline) 117 % of control; (dose: 96.0 mg/kg/injection, schedule: Q01DX015 (ip), vehicle: saline) 97 % of control; (dose: 96.0 mg/kg/injection, schedule: Q01DX Z (ip), vehicle: saline) 90 % of control; (dose: 144.0 mg/kg/injection, schedule: Q01DX001 (ip), vehicle: saline) 152 % of control and 153 % of control. Also, the T/C is, setting by setting: (dose: 200.0 mg/kg/injection, schedule: Q01DX001 (ip), vehicle: saline) 112 % of control; (dose: 216.0 mg/kg/injection, schedule: Q01DX001 (ip), vehicle: saline) 107 % of control.

As for `COC(=O)/C=C\C=C(\CBr)C(=O)OC`, the T/C (dose: 6.25 mg/kg/injection, schedule: Q01DX009 (ip), vehicle: saline) was 104 % of control; the T/C (dose: 6.25 mg/kg/injection, schedule: Q04DX003 (ip), vehicle: saline sonified) is 103 % of control; the T/C (dose: 12.5 mg/kg/injection, schedule: Q01DX009 (ip), vehicle: saline) was 96 % of control; the T/C (dose: 12.5 mg/kg/injection, schedule: Q04DX003 (ip), vehicle: saline sonified) was 97 % of control; the T/C (dose: 25.0 mg/kg/injection, schedule: Q01DX009 (ip), vehicle: saline) is 110 % of control; the T/C (dose: 25.0 mg/kg/injection, schedule: Q04DX003 (ip), vehicle: saline sonified) is 95 % of control.

For the compound `COc1cc2c(c(Cl)c1N)-c1ccccc1C2`, the T/C is, setting by setting: (dose: 177.0 mg/kg/injection, schedule: Q01DX001 (ip), vehicle: carboxymethylcellulose (CMC)) 104 % of control; (dose: 266.0 mg/kg/injection, schedule: Q01DX001 (ip), vehicle: carboxymethylcellulose (CMC)) 98 % of control.

On to `C=COCCN(C)C`, for which the T/C is 90 % of control (dose: 50.0 mg/kg/injection, schedule: Q01DX009 (ip), vehicle: saline); 93 % of control (dose: 100.0 mg/kg/injection, schedule: Q01DX009 (ip), vehicle: saline); 105 % of control (dose: 100.0 mg/kg/injection, schedule: Q04DX003 (ip), vehicle: saline); 93 % of control (dose: 200.0 mg/kg/injection, schedule: Q01DX009 (ip), vehicle: saline); 89 % of control (dose: 200.0 mg/kg/injection, schedule: Q04DX003 (ip), vehicle: saline).

For the compound `NC(=O)C(NC(=O)c1ccc([N+](=O)[O-])cc1)Sc1ccccc1` (configuration not stated), the T/C (dose: 100.0 mg/kg/injection, schedule: Q04DX002 (ip), vehicle: Klucel (hydroxypropylcellulose) (HPC)) was 109 % of control; the T/C (dose: 200.0 mg/kg/injection, schedule: Q04DX002 (ip), vehicle: Klucel (hydroxypropylcellulose) (HPC)) is 106 % of control; the T/C (dose: 400.0 mg/kg/injection, schedule: Q04DX002 (ip), vehicle: Klucel (hydroxypropylcellulose) (HPC)) is 101 % of control.

`Cc1ccc(S(=O)(=O)/N=S(\Cc2ccccc2)c2ccccc2)cc1` (configuration not stated): the T/C runs as follows: (dose: 100.0 mg/kg/injection, schedule: Q01DX009 (ip), vehicle: Klucel (hydroxypropylcellulose) (HPC)) 92 % of control; (dose: 100.0 mg/kg/injection, schedule: Q04DX003 (ip), vehicle: Klucel (hydroxypropylcellulose) (HPC)) 93 % of control; (dose: 200.0 mg/kg/injection, schedule: Q01DX009 (ip), vehicle: Klucel (hydroxypropylcellulose) (HPC)) 89 % of control; (dose: 200.0 mg/kg/injection, schedule: Q04DX003 (ip), vehicle: Klucel (hydroxypropylcellulose) (HPC)) 97 % of control; (dose: 400.0 mg/kg/injection, schedule: Q01DX009 (ip), vehicle: Klucel (hydroxypropylcellulose) (HPC)) 92 % of control; (dose: 400.0 mg/kg/injection, schedule: Q04DX003 (ip), vehicle: Klucel (hydroxypropylcellulose) (HPC)) 98 % of control.
